Activity calls are given as the source filed them.
Tests used:
[1] = target: DNA dC->dU-editing enzyme APOBEC-3G (Homo sapiens, UniProt Q9HC16); format: functional;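 note: Dose-response counterscreen measuring inhibition of APOBEC3G DNA deaminase activity, run while confirming APOBEC3A inhibitors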
[2] = target: T1, Dual specificity protein phosphatase 6 (Rattus norvegicus, UniProt Q64346); assay: inhibition of rat DUSP6 enzyme activity – biochemical, in vitro, primary screen (AID 425)
T1 sequence (Q64346 whole entry): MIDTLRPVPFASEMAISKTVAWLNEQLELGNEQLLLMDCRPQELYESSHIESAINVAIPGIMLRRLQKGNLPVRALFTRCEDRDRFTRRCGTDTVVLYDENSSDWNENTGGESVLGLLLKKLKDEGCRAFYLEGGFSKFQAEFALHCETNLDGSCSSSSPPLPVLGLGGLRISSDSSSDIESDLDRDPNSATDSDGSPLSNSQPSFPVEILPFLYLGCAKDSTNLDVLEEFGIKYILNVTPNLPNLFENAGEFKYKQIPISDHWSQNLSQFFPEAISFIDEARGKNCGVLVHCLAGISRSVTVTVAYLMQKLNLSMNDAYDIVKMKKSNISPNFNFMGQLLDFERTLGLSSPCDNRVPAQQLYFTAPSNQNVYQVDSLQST

[3] = target: DNA dC->dU-editing enzyme APOBEC-3A (Homo sapiens, UniProt P31941); assay: Dose Response confirmation of small molecule APOBEC3A DNA Deaminase Inhibitors via a fluorescence-based single-stranded DNA deaminase assay. [Related pubchem assays (depositor defined):AID493011, AID493024]; format: functional
DNA dC->dU-editing enzyme APOBEC-3A, sequence (P31941 whole entry): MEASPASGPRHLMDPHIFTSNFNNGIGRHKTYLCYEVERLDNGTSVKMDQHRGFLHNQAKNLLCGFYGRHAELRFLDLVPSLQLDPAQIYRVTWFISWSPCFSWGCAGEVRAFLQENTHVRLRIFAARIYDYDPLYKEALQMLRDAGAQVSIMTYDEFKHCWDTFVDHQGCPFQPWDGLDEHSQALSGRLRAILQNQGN

[4] = target: T2, Tyrosine-protein phosphatase non-receptor type 7 (Homo sapiens, UniProt P35236); assay: HePTP tyrosine phosphatase activity blockers – biochemical, absorbance, leukemia target, primary screen (AID 521); format: functional
T2 sequence (P35236 whole entry): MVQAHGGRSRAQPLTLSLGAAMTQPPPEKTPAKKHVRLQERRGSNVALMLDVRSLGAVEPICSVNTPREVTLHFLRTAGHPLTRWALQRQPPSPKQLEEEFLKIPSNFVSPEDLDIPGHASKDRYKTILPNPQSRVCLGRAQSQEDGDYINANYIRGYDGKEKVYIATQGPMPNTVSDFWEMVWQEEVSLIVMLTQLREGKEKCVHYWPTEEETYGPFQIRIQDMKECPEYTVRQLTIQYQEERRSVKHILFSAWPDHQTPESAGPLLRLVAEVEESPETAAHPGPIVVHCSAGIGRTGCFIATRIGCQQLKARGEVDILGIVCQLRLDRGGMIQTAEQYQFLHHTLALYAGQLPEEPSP

[5] = target: T3, Bcl-2-like protein 10 (Homo sapiens, UniProt Q9HD36); assay: Bcl-B/TR3 peptide binding disruption – biochemical, fluorescence polarization, FITC-TR3 peptide, selectivity assay for Bfl-1 inhibitor project, primary screen (AID 748);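 note: fluorescence polarization from a fluorescein-labelled TR3 peptide binding purified Bcl-B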
T3 sequence (Q9HD36 whole entry): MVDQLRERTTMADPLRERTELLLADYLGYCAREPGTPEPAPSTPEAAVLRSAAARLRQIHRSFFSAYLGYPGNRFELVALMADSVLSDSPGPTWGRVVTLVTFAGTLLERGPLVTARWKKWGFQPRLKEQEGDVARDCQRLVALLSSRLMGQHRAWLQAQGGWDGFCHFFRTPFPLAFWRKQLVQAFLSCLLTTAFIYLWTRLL

[6] = target: T4, Bcl-2-related protein A1 (Mus musculus, UniProt Q07440); assay: displacement of Bid BH3 peptide from Bfl-1 – biochemical, fluorescence polarization, FITC-Bid, mouse, primary screen (AID 432)
T4 sequence (Q07440 whole entry): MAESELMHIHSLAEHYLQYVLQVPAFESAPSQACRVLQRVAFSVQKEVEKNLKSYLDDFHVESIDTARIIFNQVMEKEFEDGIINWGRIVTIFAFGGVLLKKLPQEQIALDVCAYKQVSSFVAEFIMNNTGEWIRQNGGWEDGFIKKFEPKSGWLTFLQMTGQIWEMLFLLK

[7] = test system: Vero; assay: mammalian cell viability reduction – secondary assay, cytotoxicity control for West Nile virus antiviral project, dose response (AID 1650); format: functional; settings: Chlorocebus sabaeus
[8] = alpha-synuclein stem-loop luciferase translation blockers – H4 neuroglioma cells, luminescence, confirmation (AID 1988); format: functional, cell-based
[9] = Luminescence Cell-Based Dose Response HTS to Identify Inhibitors of 5'UTR Stem-Loop Driven Prion Protein mRNA Translation in H4 Neuroglioblastoma Cells. [Related pubchem assays: 1827 (Project Summary), 1813 (Primary HTS)]; format: functional
[10] = luciferase reporter signal suppression in cells – H4 neuroglioma cells, luminescence, dose response (AID 1990); format: functional, cell-based
[11] = viability of uninfected HEp-2 cells – cell-based, HTS, cytotoxicity control for RSV inhibitor project, dose response (AID 2410); format: functional; settings: human respiratory syncytial virus
[12] = cells; format: functional
[13] = THP-1 cell cytotoxicity, dose response, cytotoxicity control for non-replicating M. tuberculosis project (AID 489025); format: functional
[14] = Vero E6 cell cytotoxicity, dose response, cytotoxicity control for non-replicating M. tuberculosis project, secondary assay (AID 492998); format: functional, VeroE6; settings: Vero C1008
[15] = Trypanosoma cruzi growth suppression in host cells – NIH3T3 host cells, beta-gal luminescence, confirmation (AID 2044); format: functional, cell-based;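 note: intracellular parasites grown in NIH/3T3 mouse fibroblasts as host cells; luminescent beta-galactosidase reporter signal from transgenic T. cruzi replicating inside host cells; inhibitors lower the luminescence signal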
[16] = NIH3T3 cell viability loss – ATP luminescence, mouse fibroblasts, counter-screen, dose response (AID 2010); format: functional, cell-based;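 note: cells exposed to compound for about 90 hours before reading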
[17] = A Cell Based Secondary Assay To Explore Cytotoxicity of Compounds that Sensitize Mycobacterium Tuberculosis to Beta-Lactam Antibiotics.; format: functional
[18] = viability loss in Vero cells – cytotoxicity control for Vif-APOBEC3G degradation inhibitor project, dose response (AID 1117358); format: functional; settings: Vero
[19] = target: Photoreceptor-specific nuclear receptor (Homo sapiens, UniProt Q9Y5X4); assay: ligands suppressing NR2E3 nuclear receptor activity – biochemical, TR-FRET, dose response (AID 463256); format: functional
Photoreceptor-specific nuclear receptor, sequence (Q9Y5X4 whole entry): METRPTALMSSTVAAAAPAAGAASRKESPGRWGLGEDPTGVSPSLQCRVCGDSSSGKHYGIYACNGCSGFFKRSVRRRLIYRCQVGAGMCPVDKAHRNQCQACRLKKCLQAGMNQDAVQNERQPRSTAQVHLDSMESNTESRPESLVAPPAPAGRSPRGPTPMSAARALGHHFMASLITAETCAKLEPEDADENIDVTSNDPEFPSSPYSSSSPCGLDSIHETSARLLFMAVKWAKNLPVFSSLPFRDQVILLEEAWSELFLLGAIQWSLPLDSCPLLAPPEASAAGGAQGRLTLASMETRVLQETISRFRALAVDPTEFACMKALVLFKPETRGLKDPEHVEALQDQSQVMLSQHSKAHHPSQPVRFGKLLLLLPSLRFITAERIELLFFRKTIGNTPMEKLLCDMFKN

[20] = target: Cytochrome P450 2C9 (Homo sapiens, UniProt P11712)
Cytochrome P450 2C9, sequence (P11712 whole entry): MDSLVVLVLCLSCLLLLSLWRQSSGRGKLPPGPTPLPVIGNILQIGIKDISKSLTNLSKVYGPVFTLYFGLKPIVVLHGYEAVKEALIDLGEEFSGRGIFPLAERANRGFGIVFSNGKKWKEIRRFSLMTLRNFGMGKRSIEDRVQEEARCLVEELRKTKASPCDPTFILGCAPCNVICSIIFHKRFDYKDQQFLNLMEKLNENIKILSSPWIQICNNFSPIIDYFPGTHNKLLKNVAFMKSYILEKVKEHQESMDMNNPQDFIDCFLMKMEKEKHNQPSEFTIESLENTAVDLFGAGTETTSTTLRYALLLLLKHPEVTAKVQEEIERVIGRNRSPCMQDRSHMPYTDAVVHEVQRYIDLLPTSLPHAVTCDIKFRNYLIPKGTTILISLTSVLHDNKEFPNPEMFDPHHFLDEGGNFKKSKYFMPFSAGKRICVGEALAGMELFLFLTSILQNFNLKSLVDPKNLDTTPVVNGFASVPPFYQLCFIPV

[21] = target: Peroxisome proliferator-activated receptor gamma/Nuclear receptor corepressor 2 (Homo sapiens, UniProt P37231+Q9Y618); assay: Counterscreen for NR2E3 inverse agonists: TR-FRET-based biochemical high throughput dose response assay to identify inverse agonists of the interaction between peroxisome proliferator-activated receptor gamma (PPARg) and nuclear receptor co-repressor 2 (NCOR2).; format: functional
[22] = test system: HEK293; assay: cells; settings: Homo sapiens
[23] = target: Cytochrome P450 2C19 (Homo sapiens, UniProt P33261); assay: Cytochrome panel assay with activity outcomes. Panel member name: p450-cyp2c19 Compounds with AC50 equal or less than 10 uM are considered active; format: functional; settings: read-out: AC50
Cytochrome P450 2C19, sequence (P33261 whole entry): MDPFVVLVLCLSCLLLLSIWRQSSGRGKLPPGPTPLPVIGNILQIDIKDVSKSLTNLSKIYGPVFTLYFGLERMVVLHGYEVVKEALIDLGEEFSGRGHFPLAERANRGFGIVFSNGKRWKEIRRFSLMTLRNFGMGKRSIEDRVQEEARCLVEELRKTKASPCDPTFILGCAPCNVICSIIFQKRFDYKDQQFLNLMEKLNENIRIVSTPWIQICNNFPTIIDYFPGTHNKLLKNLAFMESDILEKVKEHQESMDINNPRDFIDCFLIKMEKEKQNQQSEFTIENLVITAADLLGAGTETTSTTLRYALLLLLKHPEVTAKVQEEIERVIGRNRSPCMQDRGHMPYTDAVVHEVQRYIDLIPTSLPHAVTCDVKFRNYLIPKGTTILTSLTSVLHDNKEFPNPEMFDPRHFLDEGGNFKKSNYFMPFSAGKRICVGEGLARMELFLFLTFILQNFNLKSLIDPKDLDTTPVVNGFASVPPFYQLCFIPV

[24] = test system: HEK293; assay: cells; settings: Homo sapiens; remark: listed apart in the source
[25] = target: Cytochrome P450 3A4 (Homo sapiens, UniProt P08684);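 note: CYP3A4 tested as one member of a cytochrome P450 panel screen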
Cytochrome P450 3A4, sequence (P08684 whole entry, the tested form may be a part): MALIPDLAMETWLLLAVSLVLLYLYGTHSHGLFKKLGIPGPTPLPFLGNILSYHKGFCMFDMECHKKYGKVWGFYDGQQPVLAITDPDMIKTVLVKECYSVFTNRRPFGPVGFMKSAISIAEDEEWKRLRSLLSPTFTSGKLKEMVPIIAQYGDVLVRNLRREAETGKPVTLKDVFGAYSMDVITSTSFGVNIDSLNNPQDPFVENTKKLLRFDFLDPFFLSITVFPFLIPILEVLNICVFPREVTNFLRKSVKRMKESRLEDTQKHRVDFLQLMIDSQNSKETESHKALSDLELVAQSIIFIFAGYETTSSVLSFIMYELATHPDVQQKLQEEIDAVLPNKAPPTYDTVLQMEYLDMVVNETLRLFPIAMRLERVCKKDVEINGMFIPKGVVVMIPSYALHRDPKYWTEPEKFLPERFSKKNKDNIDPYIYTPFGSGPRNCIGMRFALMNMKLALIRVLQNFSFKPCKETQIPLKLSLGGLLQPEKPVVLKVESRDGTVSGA

[26] = target: T5, RNA-binding protein pos-1 (Caenorhabditis elegans, UniProt G5EF15); assay: disruptors of C. elegans POS-1 RNA interaction – biochemical, fluorescence polarization, dose response (AID 1964);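 note: purified POS-1 fused to maltose binding protein made in E. coli; potency of compounds blocking POS-1 binding to fluorescent RNA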
T5 sequence (G5EF15 whole entry): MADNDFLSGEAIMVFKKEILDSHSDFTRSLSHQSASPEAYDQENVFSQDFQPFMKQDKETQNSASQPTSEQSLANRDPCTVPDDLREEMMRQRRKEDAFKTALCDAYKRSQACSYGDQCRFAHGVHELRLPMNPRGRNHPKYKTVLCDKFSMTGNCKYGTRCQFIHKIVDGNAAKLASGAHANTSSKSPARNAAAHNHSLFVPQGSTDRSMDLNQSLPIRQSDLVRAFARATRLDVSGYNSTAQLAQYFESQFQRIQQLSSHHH

[27] = target: Ephrin type-A receptor 4 (Mus musculus, UniProt Q03137); assay: EphA4 ligand-binding antagonists – biochemical, colorimetric, mouse EphA4, primary screen (AID 689); format: functional
[28] = target: Voltage-dependent T-type calcium channel subunit alpha-1H (Homo sapiens, UniProt O95180); format: functional;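 note: channel activity triggered by adding a high calcium stimulation buffer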
Voltage-dependent T-type calcium channel subunit alpha-1H, sequence (O95180 whole entry): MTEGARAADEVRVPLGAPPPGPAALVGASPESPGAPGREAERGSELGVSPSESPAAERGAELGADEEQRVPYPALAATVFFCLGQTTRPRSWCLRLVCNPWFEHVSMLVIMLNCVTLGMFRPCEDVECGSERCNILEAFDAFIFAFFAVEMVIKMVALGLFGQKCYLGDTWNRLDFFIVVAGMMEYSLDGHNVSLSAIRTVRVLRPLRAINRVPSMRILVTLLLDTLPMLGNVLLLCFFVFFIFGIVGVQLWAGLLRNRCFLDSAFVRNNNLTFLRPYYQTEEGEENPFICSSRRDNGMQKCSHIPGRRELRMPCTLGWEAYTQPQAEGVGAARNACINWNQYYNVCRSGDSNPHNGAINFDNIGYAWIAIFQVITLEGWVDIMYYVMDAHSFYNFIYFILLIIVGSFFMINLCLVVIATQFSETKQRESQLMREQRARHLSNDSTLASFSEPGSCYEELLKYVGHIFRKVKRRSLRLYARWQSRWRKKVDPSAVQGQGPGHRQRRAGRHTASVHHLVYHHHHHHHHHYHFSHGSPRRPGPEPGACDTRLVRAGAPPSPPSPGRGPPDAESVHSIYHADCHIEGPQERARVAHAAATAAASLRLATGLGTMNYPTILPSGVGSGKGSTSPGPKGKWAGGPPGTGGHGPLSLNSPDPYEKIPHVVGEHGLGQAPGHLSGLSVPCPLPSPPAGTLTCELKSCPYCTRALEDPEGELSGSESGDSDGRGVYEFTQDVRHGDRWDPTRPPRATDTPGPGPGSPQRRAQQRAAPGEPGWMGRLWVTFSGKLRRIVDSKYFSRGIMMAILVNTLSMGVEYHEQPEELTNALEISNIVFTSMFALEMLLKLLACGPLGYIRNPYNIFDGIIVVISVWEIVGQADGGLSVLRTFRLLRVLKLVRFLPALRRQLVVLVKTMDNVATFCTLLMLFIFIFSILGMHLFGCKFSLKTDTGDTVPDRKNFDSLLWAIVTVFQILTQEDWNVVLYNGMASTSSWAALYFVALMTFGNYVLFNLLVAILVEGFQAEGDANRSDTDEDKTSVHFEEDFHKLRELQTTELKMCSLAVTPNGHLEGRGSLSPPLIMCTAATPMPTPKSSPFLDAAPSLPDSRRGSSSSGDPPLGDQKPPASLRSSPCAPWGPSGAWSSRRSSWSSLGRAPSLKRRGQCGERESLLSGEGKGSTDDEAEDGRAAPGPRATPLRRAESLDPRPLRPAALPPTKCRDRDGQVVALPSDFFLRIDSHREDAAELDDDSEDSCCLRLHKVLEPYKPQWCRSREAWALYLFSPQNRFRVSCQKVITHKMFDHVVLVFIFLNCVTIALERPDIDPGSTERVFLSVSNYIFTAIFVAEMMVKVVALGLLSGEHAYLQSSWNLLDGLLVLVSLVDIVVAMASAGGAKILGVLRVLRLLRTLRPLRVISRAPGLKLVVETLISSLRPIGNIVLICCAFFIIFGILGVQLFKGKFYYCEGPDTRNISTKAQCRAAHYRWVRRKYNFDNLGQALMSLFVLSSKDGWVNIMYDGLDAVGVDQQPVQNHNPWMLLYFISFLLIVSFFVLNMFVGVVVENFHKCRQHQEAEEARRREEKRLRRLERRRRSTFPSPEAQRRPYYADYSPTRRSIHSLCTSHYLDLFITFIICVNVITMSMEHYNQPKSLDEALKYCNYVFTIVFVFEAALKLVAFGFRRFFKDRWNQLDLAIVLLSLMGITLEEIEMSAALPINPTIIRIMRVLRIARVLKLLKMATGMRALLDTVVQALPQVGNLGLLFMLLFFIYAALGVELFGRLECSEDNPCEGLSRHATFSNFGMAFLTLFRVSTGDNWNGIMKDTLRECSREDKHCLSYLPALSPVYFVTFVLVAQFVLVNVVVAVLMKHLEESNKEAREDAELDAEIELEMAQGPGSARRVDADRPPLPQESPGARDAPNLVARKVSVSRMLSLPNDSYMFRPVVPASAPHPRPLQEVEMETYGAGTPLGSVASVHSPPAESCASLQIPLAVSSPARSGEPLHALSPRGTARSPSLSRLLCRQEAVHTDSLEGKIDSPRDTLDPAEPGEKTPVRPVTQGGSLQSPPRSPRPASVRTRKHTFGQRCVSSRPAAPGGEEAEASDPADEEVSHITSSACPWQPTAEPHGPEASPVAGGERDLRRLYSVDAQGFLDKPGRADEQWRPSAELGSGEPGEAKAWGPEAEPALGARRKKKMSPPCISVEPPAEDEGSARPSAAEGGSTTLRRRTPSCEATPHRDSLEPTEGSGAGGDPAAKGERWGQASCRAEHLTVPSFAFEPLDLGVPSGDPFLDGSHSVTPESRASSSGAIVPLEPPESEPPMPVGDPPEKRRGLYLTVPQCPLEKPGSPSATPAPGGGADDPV

[29] = target: T6, Zinc finger protein mex-5 (Caenorhabditis elegans, UniProt Q9XUB2); assay: potency of MEX-5 RNA-binding blockers – biochemical, C. elegans, fluorescence polarization, dose response (AID 1960)
T6 sequence (Q9XUB2 whole entry): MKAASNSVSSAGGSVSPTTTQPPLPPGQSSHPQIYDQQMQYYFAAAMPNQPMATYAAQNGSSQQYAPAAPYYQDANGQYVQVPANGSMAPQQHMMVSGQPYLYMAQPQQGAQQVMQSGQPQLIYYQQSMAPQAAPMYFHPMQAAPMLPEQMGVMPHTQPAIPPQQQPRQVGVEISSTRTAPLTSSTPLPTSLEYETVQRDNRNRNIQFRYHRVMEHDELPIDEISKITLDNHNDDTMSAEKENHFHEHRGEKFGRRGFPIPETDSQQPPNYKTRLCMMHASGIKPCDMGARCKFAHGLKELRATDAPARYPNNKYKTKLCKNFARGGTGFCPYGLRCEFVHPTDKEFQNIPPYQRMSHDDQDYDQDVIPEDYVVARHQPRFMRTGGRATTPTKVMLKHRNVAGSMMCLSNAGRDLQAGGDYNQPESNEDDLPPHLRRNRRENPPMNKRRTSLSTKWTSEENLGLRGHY

[30] = cells
[31] = growth inhibition of yeast DHODH-expressing 3D7 parasites – SYBR Green, dry powder samples, dose response (AID 1159570); format: functional, cell-based;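 note: parasite growth measured after 72 hours of compound exposure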
[32] = Dd2 malaria parasite growth inhibition potency – SYBR Green, dry powder samples, dose response (AID 1159566); format: functional, cell-based;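 note: potency for growth inhibition with lower SYBR green DNA signal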
[33] = Plasmodium falciparum Dd2 Sybr green parasite growth Measured in Cell-Based and Microorganism Combination System Using Plate Reader - 2153-01_Inhibitor_Dose_DryPowder_Activity_Set3.; format: functional
[34] = growth inhibition of PfATP4-mutant resistant parasites – NITD609-resistant line, SYBR Green, dry powder, dose response (AID 1159571); format: functional, cell-based;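 note: parasites synchronized at ring stage by sorbitol before testing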
[35] = P. falciparum Dd2 growth inhibitors, dose response, SYBR Green, cherry-picked samples (AID 1159567); format: functional, cell-based
[36] = toxicity to human HepG2 hepatoma cells – cell-based, plate reader, dry powder samples, cytotoxicity control, dose response (AID 1159569); format: functional;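 note: inhibitor potency with signal falling toward the positive control level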
[37] = Single fluorophore orthopox expression reporter, late gene expression Measured in Cell-Based and Microorganism Combination System Using Plate Reader - 2142-08_Inhibitor_Dose_DryPowder_Activity.; format: functional
[38] = inhibitors of orthopox intermediate gene expression, dose response, cell-based, single fluorophore reporter, dry powder (AID 1117271); format: functional
[39] = lung carcinoma cell viability loss – CellTiter-Glo luminescence, dry powder, set 17, dose response (AID 1117284); format: functional, cell-based; settings: A549

DNA dC->dU-editing enzyme APOBEC-3G, sequence (Q9HC16 whole entry): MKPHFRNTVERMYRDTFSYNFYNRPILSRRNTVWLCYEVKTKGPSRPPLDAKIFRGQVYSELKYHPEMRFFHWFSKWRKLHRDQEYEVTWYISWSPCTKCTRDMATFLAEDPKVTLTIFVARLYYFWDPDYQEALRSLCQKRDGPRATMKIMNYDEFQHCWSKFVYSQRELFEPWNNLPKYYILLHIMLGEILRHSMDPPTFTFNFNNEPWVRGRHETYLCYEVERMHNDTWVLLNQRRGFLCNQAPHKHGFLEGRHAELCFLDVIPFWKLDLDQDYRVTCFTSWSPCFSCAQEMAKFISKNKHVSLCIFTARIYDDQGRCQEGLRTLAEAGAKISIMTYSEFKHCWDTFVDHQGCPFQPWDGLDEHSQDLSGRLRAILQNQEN

CCn1c(SCC(=O)O)nc2sc3c(c2c1=O)CCC3
IC50 [1]: 40.8 µM (active) | IC50 [2]: > 10 µM (not active) | IC50 [3]: 17.5 µM (active) | IC50 [4]: 1.29 µM (active) | IC50 [5]: 8.5 µM (active) | IC50 [6]: 14.5 µM (active)

O=C(Nc1ccc(O)c2c(=O)cc(-c3cccc(Cl)c3)oc12)c1cccc(Cl)c1
CC50 [7]: 0.83 µM (active) | EC50 [8]: 10.2 µM (active) | EC50 [9]: > 120 µM (not active) | EC50 [10]: > 120 µM (not active)

NCCOc1ccc(C23CC4CC(CC(C4)C2)C3)cc1
CC50 [11]: 13.1 µM (active) | IC50 [12]: 23.4 µM (active) | CC50 [7]: 10.7 µM (active) | CC50 [13]: 11.4 µM (active) | CC50 [14]: > 20 µM (active)

CCC1Nc2ncnc(N3CCN(c4ccccc4)CC3)c2N(Cc2ccc(Br)cc2)C1=O (centres undefined)
EC50 [15]: 1.59 µM (active) | EC50 [16]: > 60 µM (not active) | CC50 [17]: > 40 µM (active)

N#Cc1nc(Cc2cccc3ccccc23)oc1NCc1ccc(F)cc1
CC50 [18]: > 40 µM (active)

CCOc1ccc(C(=O)Nc2ccc(NC(=O)c3ccco3)c(Cl)c2)cc1Br
IC50 [19]: > 39.8 µM (not active) | AC50 [20]: 0.562 µM (inconclusive) | IC50 [21]: > 39.8 µM (not active) | EC50 [22]: > 59.7 µM (inactive) | AC50 [23]: 0.398 µM (inconclusive) | EC50 [24]: > 59.7 µM (inactive) | AC50 [25]: 22.4 µM (inconclusive)

Cc1ccc2cc(/C=C3\N=C(c4ccccc4)OC3=O)c(N3CCOCC3)nc2c1
EC50 [26]: > 300 µM (not active) | IC50 [27]: 1.54 µM (active) | EC50 [28]: 10.8 µM (active) | EC50 [29]: > 300 µM (inconclusive)

CCc1ccccc1NC(=O)CN(C)Cc1nc(N)nc(Nc2ccccc2C)n1
IC50 [4]: > 100 µM (not active)

O=C(CN1CCN(S(=O)(=O)c2ccc(Cl)s2)CC1)NCc1ccc(Cl)cc1
CC50 [18]: 15.1 µM (active)

Cc1cccc2nc(COc3ccc(Cl)c4cccnc34)cn12
IC50 [30]: 33.2 µM (active)

Cc1ccc(-c2nc3ccccc3o2)cc1NC(=S)NC(=O)/C=C/c1ccco1
CC50 [17]: 32.9 µM (active)

C/C=C/c1ccc([C@H]2[C@@H](C#N)N(C(=O)NC3CCCC3)[C@@H]2CO)cc1
AC50 [31]: 15.4 µM (active) | AC50 [32]: 0.4 µM (active) | AC50 [33]: 0.719 µM (active) | AC50 [34]: 0.626 µM (active) | AC50 [35]: 1.02 µM (active)

CO[C@@H]1CN(C)C(=O)c2ccc(NC(=O)C3CC3)cc2OC[C@@H](C)N(Cc2cccc(F)c2)C[C@H]1C
AC50 [31]: 6.86 µM (active) | AC50 [32]: 0.664 µM (active) | AC50 [36]: > 100 µM (inactive) | AC50 [33]: 4.29 µM (active) | AC50 [34]: 3.64 µM (active) | AC50 [35]: 2.98 µM (active)

C[C@@H](O)C#Cc1ccc2c(c1)O[C@@H](CN(C)Cc1ccc(-c3ccc(Cl)cc3)cc1)[C@@H](C)CN([C@@H](C)CO)S2(=O)=O
AC50 [37]: 1.26 µM (active) | AC50 [38]: 1.29 µM (active) | AC50 [39]: 33.4 µM (active)

c1ccc(N2CCN(Cc3nc4ccccc4[nH]3)CC2)nc1 [ABT-724]
IC50 [30]: 24 µM (active)
